Experimental data taken from the supplement of paper PMC4862054.

How the values were obtained:
Conditions in all cases: incubation time: 72 h
[1] = system: BT-474; assay: normalised response (% of control), CellTiter-Glo; higher = more viable cells (100 = DMSO, 0 = benzethonium chloride kill control)
How it was run: (§1)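 Each entry is the normalised signal at a single concentration within a series. The series comprised 5 concentrations in 10-fold steps over a compound-specific 10,000-fold range, placed in 384-well plates into which breast cancer cell lines were seeded as 20 µl suspension and incubated 72 h. CellTox Green (485/520 nm) fluorescence and then CellTiter-Glo luminescence were read, with signals normalised per plate to 0.1 % DMSO (100) and a positive kill control (0).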

[2] = system: BT-549; assay: as above
How it was run: as §1

[3] = system: CAL-120; assay: as above
How it was run: as §1

[4] = system: CAL-148; assay: as above
How it was run: as §1

[5] = system: CAL-51; assay: as above
How it was run: as §1

[6] = system: CAL-85-1; assay: as above
How it was run: as §1

[7] = system: DU-4475; assay: as above
How it was run: as §1

[8] = system: HCC1143; assay: as above
How it was run: as §1

[9] = system: HCC1599; assay: as above
How it was run: as §1

[10] = system: HCC1937; assay: as above
How it was run: as §1

[11] = system: HDQ-P1; assay: as above
How it was run: as §1

[12] = system: Hs578T; assay: as above
How it was run: as §1

[13] = system: MCF-10A; assay: as above
How it was run: as §1

[14] = system: MDA-MB-231; assay: as above
How it was run: as §1

[15] = system: MDA-MB-436; assay: as above
How it was run: as §1

[16] = system: MDA-MB-453; assay: as above
How it was run: as §1

[17] = system: MDA-MB-468; assay: as above
How it was run: as §1

[18] = system: MFM-223; assay: as above
How it was run: as §1

[19] = system: SK-BR-3; assay: as above
How it was run: as §1

[20] = system: BT-474; assay: normalised viability (% of control), CellTiter-Blue; higher = more viable cells (100 = DMSO, 0 = benzethonium chloride kill control)
Protocol: (§2)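 DSRT, CellTiter-Blue viability, 72 h incubation. Signal is normalised to DMSO and benzethonium chloride controls. Value is the normalised response at dose 1.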

[21] = system: BT-549; assay: as above
Protocol: as §2

[22] = system: CAL-120; assay: as above
Protocol: as §2

[23] = system: CAL-148; assay: as above
Protocol: as §2

[24] = system: CAL-51; assay: as above
Protocol: as §2

[25] = system: CAL-85-1; assay: as above
Protocol: as §2

[26] = system: DU-4475; assay: as above
Protocol: as §2

[27] = system: HCC1143; assay: as above
Protocol: as §2

[28] = system: HCC1599; assay: as above
Protocol: as §2

[29] = system: HCC1937; assay: as above
Protocol: as §2

[30] = system: HDQ-P1; assay: as above
Protocol: as §2

[31] = system: Hs578T; assay: as above
Protocol: as §2

[32] = system: MDA-MB-231; assay: as above
Protocol: as §2

[33] = system: MDA-MB-436; assay: as above
Protocol: as §2

[34] = system: MDA-MB-453; assay: as above
Protocol: as §2

[35] = system: MDA-MB-468; assay: as above
Protocol: as §2

[36] = system: MFM-223; assay: as above
Protocol: as §2

[37] = system: SK-BR-3; assay: as above
Protocol: as §2

SMILES	normalised response [1] [%]	normalised response [2] [%]	normalised response [3] [%]	normalised response [4] [%]	normalised response [5] [%]	normalised response [6] [%]	normalised response [7] [%]	normalised response [8] [%]	normalised response [9] [%]	normalised response [10] [%]	normalised response [11] [%]	normalised response [12] [%]	normalised response [13] [%]	normalised response [14] [%]	normalised response [15] [%]	normalised response [16] [%]	normalised response [17] [%]	normalised response [18] [%]	normalised response [19] [%]	normalised viability [20] [%]	normalised viability [21] [%]	normalised viability [22] [%]	normalised viability [23] [%]	normalised viability [24] [%]	normalised viability [25] [%]	normalised viability [26] [%]	normalised viability [27] [%]	normalised viability [28] [%]	normalised viability [29] [%]	normalised viability [30] [%]	normalised viability [31] [%]	normalised viability [32] [%]	normalised viability [33] [%]	normalised viability [34] [%]	normalised viability [35] [%]	normalised viability [36] [%]	normalised viability [37] [%]
Cc1sc2c(c1C)C(c1ccc(Cl)cc1)=N[C@@H](CC(=O)OC(C)(C)C)c1nnc(C)n1-2 [(+)JQ1] (1 nM)	107	103	98.5	113	85	97.2	106	103	96.6	95.8	101	98.1	105	106	127	126	103	104	111	114	104	90.3	108	97.5	87.4	110	126	113	97.4	90.9	114	114	139	177	104	102	107
CC(C)(C)c1cnc(CSc2cnc(NC(=O)C3CCNCC3)s2)o1 [SNS-032] (1 nM)	92.2	101	91.2	92.2	86.2	105	98.2	97.3	96.3	90.8	95	97.6	95.5	97.5	84.1	99.2	92	92	90.8	101	113	86.2	113	113	92.7	99	85.9	101	103	102	104	97.7	113	103	104	93.1	101
Oc1ncnc2[nH]ncc12 [Allopurinol] (1 nM)	101	106	100	100	95.1	99.3	102	108	101	98.2	101	103	108	101	99.9	113	109	105	117	97.2	92.2	111	119	92.5	112	109	106	91.2	78.6	108	95.6	93.5	102	116	109	96.2	91.7
CC[C@@H]1C(=O)OC[C@@H]1Cc1cncn1C [Pilocarpine] (4 nM)	91.7	101	94	96.4	123	95	100	93.7	76.7	92.8	95.7	103	94.6	96.1	79.3	111	98.4	101	99.2	74.9	103	100	108	108	96.3	99.7	97.6	85.4	94.3	133	92.9	97.1	113	99.1	104	88.8	91.8
Nc1nc2[nH]cnc2c(=S)[nH]1 [Thioguanine] (1 nM)	98.1	104	93.3	95.3	77.6	92.8	96.7	98.9	105	92.8	98.4	101	101	96.2	94	98.1	94.5	94.1	94.2	100	98.8	97.5	107	104	98.1	105	95.3	110	90.2	111	136	92.8	101	104	104	98.4	99.9
COc1cc2c(cc1O)CC[C@@H]1[C@@H]2CC[C@]2(C)[C@@H](O)CC[C@@H]12 [2-methoxyestradiol] (1 nM)	96.7	103	94.9	97.3	122	102	99	97.8	104	98.8	97.1	106	92.5	104	101	106	104	95.9	87.2	102	96.4	92.1	102	112	91.6	107	88.9	101	87.5	97.1	105	88.8	115	95.5	103	102	89.3
CC1(C)CNc2cc(NC(=O)c3cccnc3NCc3ccncc3)ccc21 [Motesanib] (1 nM)	91.2	99.7	94	89.4	107	96	99.9	99	91.5	93.1	93.5	96.9	91.8	97.1	94.8	103	103	101	92.1	96.6	103	79.6	96.5	110	75.9	94.1	86.3	84.8	93.4	84.2	103	76.7	71.3	85	87.1	77.8	82.2
O=C1CN2Cc3c(ccc(Cl)c3Cl)N=C2N1 [Anagrelide] (1 nM)	90.6	101	92.8	90.2	110	99.5	102	100	105	97.1	110	100	94	97.2	86	109	103	98.8	104	122	113	84.6	103	105	88.7	109	90.1	87.8	68.3	112	119	102	80.8	105	101	98.9	96.1
